Measurements taken from PubChem BioAssay AID248 (DTP/NCI, 2004).
“And” between values parts separate entries of the source, which are not always exact repeats. Equal values may be shown once. Toxic doses and inconclusive results are not listed. Cut-off read from the data, not from the text of the source: active = T/C of 150% or more; inactive = T/C below 125%.

System: L1210 leukemia ip in BDF1 mice, survival T/C
Assay: NCI In Vivo Anticancer Drug Screen. Data for tumor model L1210 Leukemia (intraperitoneal) in B6D2F1 (BDF1) mice
Settings: endpoint: mean survival time, higher = longer survival
How it was run: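 Survival endpoint. Drug-treated group vs vehicle group, expressed as T divided by C. Tumor passaged by transplantation.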

[1] = dose: 100.0 mg/kg/injection, schedule: Q04DX003 (ip), vehicle: saline
[2] = dose: 100.0 mg/kg/injection, schedule: Q01DX001 (ip), vehicle: carboxymethylcellulose (CMC)
[3] = dose: 200.0 mg/kg/injection, schedule: Q01DX001 (ip), vehicle: carboxymethylcellulose (CMC)
[4] = dose: 400.0 mg/kg/injection, schedule: Q01DX001 (ip), vehicle: carboxymethylcellulose (CMC)
[5] = dose: 150.0 mg/kg/injection, schedule: Q01DX001 (ip), vehicle: saline
[6] = dose: 100.0 mg/kg/injection, schedule: Q01DX001 (ip), vehicle: saline
[7] = dose: 200.0 mg/kg/injection, schedule: Q01DX001 (ip), vehicle: saline
[8] = dose: 400.0 mg/kg/injection, schedule: Q01DX001 (ip), vehicle: saline
[9] = dose: 100.0 mg/kg/injection, schedule: Q01DX001 (ip), vehicle: saline with Tween-80
[10] = dose: 200.0 mg/kg/injection, schedule: Q01DX001 (ip), vehicle: saline with Tween-80
[11] = dose: 400.0 mg/kg/injection, schedule: Q01DX001 (ip), vehicle: saline with Tween-80
[12] = dose: 200.0 mg/kg/injection, schedule: Q01DX009 (ip), vehicle: saline
[13] = dose: 25.0 mg/kg/injection, schedule: Q01DX009 (ip), vehicle: saline
[14] = dose: 50.0 mg/kg/injection, schedule: Q01DX009 (ip), vehicle: saline
[15] = dose: 100.0 mg/kg/injection, schedule: Q01DX009 (ip), vehicle: saline
[16] = dose: 100.0 mg/kg/injection, schedule: Q01DX001 (ip), vehicle: Klucel (hydroxypropylcellulose) (HPC)
[17] = dose: 200.0 mg/kg/injection, schedule: Q01DX001 (ip), vehicle: Klucel (hydroxypropylcellulose) (HPC)

Measured: T/C

O=C(Nc1ccccc1)C1C2CC3OC(=O)C1C3C2 (centres undefined)
inactive: [1] 104 % of control and 102 % of control | dose: 200.0 mg/kg/injection, schedule: Q04DX003 (ip), vehicle: saline 95 % of control and 92 % of control | dose: 400.0 mg/kg/injection, schedule: Q04DX003 (ip), vehicle: saline 98 % of control and 104 % of control

CC(=O)Oc1ccc(-c2ccc(Cl)cc2)cc1
inactive: [2] 103 % of control | [3] 109 % of control | [4] 97 % of control

O=Cc1ccc[n+](Cc2ccccc2)c1
inactive: dose: 75.0 mg/kg/injection, schedule: Q01DX001 (ip), vehicle: saline 98 % of control | [5] 102 % of control | dose: 300.0 mg/kg/injection, schedule: Q01DX001 (ip), vehicle: saline 102 % of control

O=[N+]([O-])c1ccc(N2N=NC(c3ccccc3)C2(c2ccccc2)N2CCOCC2)cc1 (centres undefined)
inactive: [5] 89 % of control

Cc1c(C(C)c2[nH]c3ccccc3c2C)[nH]c2ccccc12
inactive: dose: 50.0 mg/kg/injection, schedule: Q01DX001 (ip), vehicle: other 98 % of control | dose: 100.0 mg/kg/injection, schedule: Q01DX001 (ip), vehicle: other 102 % of control | dose: 200.0 mg/kg/injection, schedule: Q01DX001 (ip), vehicle: other 91 % of control | dose: 400.0 mg/kg/injection, schedule: Q01DX001 (ip), vehicle: other 93 % of control

O=C(COc1cccc(Cl)c1)NCc1ccc(NC(=O)c2cccc(S(=O)(=O)F)c2)cc1
inactive: dose: 25.0 mg/kg/injection, schedule: Q04DX002 (ip), vehicle: Klucel (hydroxypropylcellulose) (HPC) 111 % of control | dose: 50.0 mg/kg/injection, schedule: Q04DX002 (ip), vehicle: Klucel (hydroxypropylcellulose) (HPC) 107 % of control | dose: 100.0 mg/kg/injection, schedule: Q04DX002 (ip), vehicle: Klucel (hydroxypropylcellulose) (HPC) 100 % of control

CC(=O)c1cc(-c2ccccc2)nc2c(C)c(Cl)ccc12
inactive: [2] 90 % of control | [3] 92 % of control | [4] 90 % of control

N#Cc1ccccc1C(=O)O
inactive: [6] 95 % of control | [7] 102 % of control | [8] 96 % of control

CC(C)CCCC(C)C1CCC2C3CCC(CCO)C(C)(CCO)C3CCC12C (centres undefined)
inactive: [9] 97 % of control | [10] 92 % of control | [11] 94 % of control

CCCCCNC(C)=O
inactive: [12] 108 % of control

CC(C)c1ccc(N=Nc2ccc(N(C)C)cc2)cc1
inactive: dose: 100.0 mg/kg/injection, schedule: Q04DX003 (ip), vehicle: saline with Tween-80 95 % of control | dose: 200.0 mg/kg/injection, schedule: Q04DX003 (ip), vehicle: saline with Tween-80 95 % of control | dose: 400.0 mg/kg/injection, schedule: Q04DX003 (ip), vehicle: saline with Tween-80 94 % of control

Cc1nccn1-c1ccccc1N=Cc1ccc(N(CCCl)CCCl)cc1Cl
inactive: dose: 100.0 mg/kg/injection, schedule: Q04DX002 (ip), vehicle: saline 102 % of control | dose: 200.0 mg/kg/injection, schedule: Q04DX002 (ip), vehicle: saline 102 % of control | dose: 400.0 mg/kg/injection, schedule: Q04DX002 (ip), vehicle: saline 98 % of control

Cn1c(=O)c2c(nc(CCCC3CCCCC3)n2C)n(C)c1=O
inactive: dose: 50.0 mg/kg/injection, schedule: Q01DX001 (ip), vehicle: saline 103 % of control | [6] 97 % of control | [7] 111 % of control | [8] 103 % of control

CN1CCC2(CC1)C(C#N)C(=O)NC(=O)C2C#N (centres undefined)
inactive: [2] 92 % of control | [3] 101 % of control | [4] 95 % of control

Oc1cccnc1CN1CCCCC1
inactive: [13] 100 % of control | [14] 91 % of control | dose: 50.0 mg/kg/injection, schedule: Q04DX003 (ip), vehicle: saline 97 % of control | [15] 96 % of control | [1] 97 % of control

C#CCOCCC(C(=O)OCC)C(=O)OCC
inactive: [15] 96 % of control | [12] 91 % of control | dose: 400.0 mg/kg/injection, schedule: Q01DX009 (ip), vehicle: saline 102 % of control

C/C=C\C(=O)OC.[W]
inactive: [14] 97 % of control | [15] 105 % of control | [12] 108 % of control

Cc1ccc(C2CCCN2C)cc1 (centres undefined)
inactive: dose: 25.0 mg/kg/injection, schedule: Q04DX003 (ip), vehicle: acetone 96 % of control | dose: 50.0 mg/kg/injection, schedule: Q04DX003 (ip), vehicle: acetone 94 % of control | dose: 100.0 mg/kg/injection, schedule: Q01DX001 (ip), vehicle: acetone 88 % of control | dose: 100.0 mg/kg/injection, schedule: Q04DX003 (ip), vehicle: acetone 99 % of control

CC1(C)C=CN2C(=O)C3=CCCN3C(=O)C2CC12Nc1ccccc1C2=O (centres undefined)
inactive: dose: 100.0 mg/kg/injection, schedule: Q04DX003 (ip), vehicle: other 111 % of control | dose: 200.0 mg/kg/injection, schedule: Q04DX003 (ip), vehicle: other 103 % of control | dose: 400.0 mg/kg/injection, schedule: Q04DX003 (ip), vehicle: other 93 % of control

O=[N+]([O-])c1ccc(C=Nc2ccccc2CO)s1
inactive: dose: 100.0 mg/kg/injection, schedule: Q04DX003 (ip), vehicle: Klucel (hydroxypropylcellulose) (HPC) 103 % of control | dose: 200.0 mg/kg/injection, schedule: Q04DX003 (ip), vehicle: Klucel (hydroxypropylcellulose) (HPC) 104 % of control | dose: 400.0 mg/kg/injection, schedule: Q04DX003 (ip), vehicle: Klucel (hydroxypropylcellulose) (HPC) 93 % of control

O=C(C(O[N+](=O)[O-])c1ccccc1)C(O[N+](=O)[O-])c1ccccc1 (centres undefined)
inactive: [16] 95 % of control | [17] 95 % of control | dose: 400.0 mg/kg/injection, schedule: Q01DX001 (ip), vehicle: Klucel (hydroxypropylcellulose) (HPC) 93 % of control

O=[N+]([O-])/C=C/c1cccs1
inactive: [16] 98 % of control | [17] 103 % of control

CCCCCCCCCCCCCCCC(=O)N(c1ccc(NC(=O)Nc2ccc(N(C(=O)CCCCCCCCCCCCCCC)C(C)CCCN(CC)CC)cc2)cc1)C(C)CCCN(CC)CC (centres undefined)
inactive: dose: 100.0 mg/kg/injection, schedule: Q01DX009 (ip), vehicle: saline with Tween-80 90 % of control | dose: 200.0 mg/kg/injection, schedule: Q01DX009 (ip), vehicle: saline with Tween-80 92 % of control | dose: 400.0 mg/kg/injection, schedule: Q01DX009 (ip), vehicle: saline with Tween-80 97 % of control

COc1cc2c(cc1OCc1ccccc1)C(C#N)N(C(=O)c1ccccc1)C=C2 (centres undefined)
inactive: [13] 98 % of control | [14] 100 % of control | [15] 93 % of control | [12] 86 % of control

O=C(NCCCl)N(O)C12CC3CC(CC(C3)C1)C2
inactive: [9] 90 % of control | [10] 97 % of control | [11] 98 % of control

C=CC1(C)CCC2C(=CCC3C(C)(C(=O)O)CCCC23C)C1 (centres undefined) (tested in a mixture with another compound)
inactive: [2] 104 % of control | [3] 95 % of control | [4] 95 % of control
